In patent US8962810B2, “Macrocyclic heterocyclic compound for inhibiting hepatitis C virus and preparation and use thereof” (AB Pharma Ltd., priority 2011, dated 2015):

What follows are compounds tested against T1, HCV Protease (HCV NS3-4A) (Hepatitis C virus genotype 1a, UniProt P27958) (assay: HCV Protease (HCV NS3-4A) anti-activity assay, fluorescence quenching (FRET)).
T1 construct: HCV Protease: HCV NS3-4A, self-prepared; made in house
Type: biochemical
Experimental: Method of HCV Protease (HCV NS3-4A) Anti-Activity Assay:
HCV Protease (HCV NS3/4A) anti-activity was measured by an inter fluorescence quenching system. EDANS group and DABCYL group were bonded on each side of a peptide. When protein cleavage started, fluorescence quenching of EDANS by DABCYL was detected. We used a high throughput screening model for HCV NS3/4A protease inhibitors, the tested drugs were prepared with 5 different concentrations, positive control and negative control were set in the same time. In the optimized reaction system, fluorescence were determined at ex=355, em=520 by a Polarstar fluorescence detector. Calculate the inhibition rate of each concentration; calculate the half maximal inhibitory concentration (IC50) with the method of Reed-Muench.
Materials: HCV Protease: HCV NS3-4A, self-prepared, stored at −70. HCV Protease substrate (FRET-S): Ac-Asp-Glu-Asp(EDANS)-Glu-Glu-Abu-ψ-[COO]-Ala-Ser-Lys-(DABCYL)-NH2, supplied by AnaSpec USA, prepared of 100 μM by DMSO, distributed and stored at −20 without light. Buffer solution: 30 mM NaCl, 5 mM CaCl2, 10 mM DTT, 50 mM Tris (pH7.8).
Instrument: fluorescence detector Polarstar from Germany Company BMG
Preparation and operation: preparation of 10 mg/mL by DMSO, dilute of 10000, 2000, 400, 80, 16 ng/mL as tested concentrations by buffer solutions, adding 20 μL into each well, the total reaction system is 200 μL, to make the final concentrations of 1000, 200, 40, 8, 1.6 ng/mL. Add 140 μL buffer solution, 20 μL drug solution, 20 μL HCV protease, and 20 μL FRET-S substrate with final concentration of 0.25 μM into 96-well fluorescence microtiterplate, the reaction started at 37, set control wells of protease-substrate reaction and of isolate substrate and isolate protease, fluorescence signals were detected by fluorescence detector (ex=355,em=520). Calculate the inhibition rates of samples for each concentration by comparison of fluorescence value of sample in each well and the fluorescence control value of enzyme, calculate the half maximal inhibitory concentration (IC50) of samples to HCV protease with the method of Reed-Muench.
THF and Et2O were distilled from sodium metal and benzophenone. DCM, pentane and hexane were distilled form calcium hydride. Special raw materials and intermediates in the invention were supplied by Zannan SciTech Co. for ordered processing, Ltd. in Shanghai, others reagents were purchased from Shanghai reagent company, Aldrich, Acros etc. If intermediates or products of synthesis were not enough for the next step of reaction, the synthesis shall be repeated until it is sufficient. The HCV protease (HCV NS3-4A) inhibitory activity assays in the present invention were performed by relevant cooperation service units of China Institutes for Biological Science in Beijing.

T1 sequence (P27958 1658-1711): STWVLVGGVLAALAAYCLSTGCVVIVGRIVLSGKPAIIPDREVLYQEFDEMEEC
T1 sequence (P27958 1027-1657): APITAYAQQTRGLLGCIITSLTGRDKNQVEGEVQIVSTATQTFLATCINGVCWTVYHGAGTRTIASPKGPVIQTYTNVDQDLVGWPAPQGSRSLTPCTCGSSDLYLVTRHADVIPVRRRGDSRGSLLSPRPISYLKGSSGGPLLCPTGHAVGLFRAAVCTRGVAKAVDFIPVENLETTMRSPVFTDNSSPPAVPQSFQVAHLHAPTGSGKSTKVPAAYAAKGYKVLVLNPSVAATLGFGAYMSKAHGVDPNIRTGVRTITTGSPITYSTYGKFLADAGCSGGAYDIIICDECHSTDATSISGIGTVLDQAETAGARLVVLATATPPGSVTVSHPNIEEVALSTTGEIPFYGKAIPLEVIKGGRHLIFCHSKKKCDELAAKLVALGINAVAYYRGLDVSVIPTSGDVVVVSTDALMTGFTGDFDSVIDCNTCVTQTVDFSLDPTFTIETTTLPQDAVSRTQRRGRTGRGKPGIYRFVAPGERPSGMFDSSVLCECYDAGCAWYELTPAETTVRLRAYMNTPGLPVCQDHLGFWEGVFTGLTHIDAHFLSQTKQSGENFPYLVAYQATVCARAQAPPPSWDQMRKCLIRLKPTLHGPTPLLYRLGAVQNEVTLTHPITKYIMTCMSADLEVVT

SMILES | IC50
CC[C@H]1C[C@@]1(NC(=O)C1C[C@@H]2CN1C(=O)[C@H](C(C)(C)C)NC(=O)OCC1(CCCCCOc3cccc4c3CN(C4)C(=O)O2)CC1)C(=O)NS(=O)(=O)C1CC1 (stereo partly shown) [Compound 15a] | 0.1 to 5 nM
C=C[C@H]1C[C@@]1(NC(=O)C1C[C@@H]2CN1C(=O)[C@H](C(C)(C)C)NC(=O)OCCCCCCCOc1cccc3c1CN(C3)C(=O)O2)C(=O)NS(=O)(=O)C1CC1 (stereo partly shown) [Compound 15ab] | 0.1 to 5 nM
C=CC1CC1(NC(=O)C1CC2CN1C(=O)C(C(C)(C)C)NC(=O)OCCCCCCCCOc1cccc3c1CN(C3)C(=O)O2)C(=O)NS(=O)(=O)C1CC1 (stereo not shown) [Compound 15ac] | 0.1 to 5 nM
CC[C@H]1C[C@@]1(NC(=O)C1C[C@@H]2CN1C(=O)[C@H](C(C)(C)C)NC(=O)OCCCCCOc1cccc3c1CN(C3)C(=O)O2)C(=O)NS(=O)(=O)C1CC1 (stereo partly shown) [Compound 15ag] | 0.1 to 5 nM
CC[C@H]1C[C@@]1(NC(=O)C1C[C@@H]2CN1C(=O)[C@H](C(C)(C)C)NC(=O)OCC(C)(C)OCCCCOc1cccc3c1CN(C3)C(=O)O2)C(=O)NS(=O)(=O)C1CC1 (stereo partly shown) [Compound 15am] | 0.1 to 5 nM
CC[C@H]1C[C@@]1(NC(=O)C1C[C@@H]2CN1C(=O)[C@H](C(C)(C)C)NC(=O)OCCC/C=C/CCOc1cccc3c1CN(C3)C(=O)O2)C(=O)NS(=O)(=O)C1CC1 (stereo partly shown) [Compound 15ap] | 0.1 to 5 nM
CC[C@H]1C[C@@]1(NC(=O)C1C[C@@H]2CN1C(=O)[C@H](C(C)(C)C)NC(=O)OCC(C)(C)CCCCCOCc1cccc3c1CN(C3)C(=O)O2)C(=O)NS(=O)(=O)C1CC1 (stereo partly shown) [Compound 15av] | 5.1 to 50 nM
CC[C@H]1C[C@@]1(NC(=O)C1C[C@@H]2CN1C(=O)[C@H](C(C)(C)C)NC(=O)OCCCCCCOCc1cccc3c1CN(C3)C(=O)O2)C(=O)NS(=O)(=O)C1CC1 (stereo partly shown) [Compound 15aw] | 5.1 to 50 nM
CC[C@H]1C[C@@]1(NC(=O)C1C[C@@H]2CN1C(=O)[C@H](C(C)(C)C)NC(=O)OCC(C)(C)CCCCOc1ccc(Cl)c3c1CN(C3)C(=O)O2)C(=O)NS(=O)(=O)C1CC1 (stereo partly shown) [Compound 15ax] | 0.1 to 5 nM
CC[C@H]1C[C@@]1(NC(=O)C1C[C@@H]2CN1C(=O)[C@H](C(C)(C)C)NC(=O)OCC(F)(F)CCCCOc1cccc3c1CN(C3)C(=O)O2)C(=O)NS(=O)(=O)C1CC1 (stereo partly shown) [Compound 15ba] | 0.1 to 5 nM
CC[C@H]1C[C@@]1(NC(=O)C1C[C@@H]2CN1C(=O)[C@H](C(C)(C)C)NC(=O)OCCCCCCNC(=O)c1cccc3c1CN(C3)C(=O)O2)C(=O)NS(=O)(=O)C1CC1 (stereo partly shown) [Compound 15bb] | 5.1 to 50 nM
CC[C@H]1C[C@@]1(NC(=O)C1C[C@@H]2CN1C(=O)[C@H](C(C)(C)C)NC(=O)OCC(C)(C)CCCCNC(=O)c1cccc3c1CN(C3)C(=O)O2)C(=O)NS(=O)(=O)C1CC1 (stereo partly shown) [Compound 15bc] | 51 to 300 nM
CCC1CC1(NC(=O)C1CC2CN1C(=O)C(C(C)(C)C)NC(=O)OCC(C)(C)CCCCCNC(=O)c1cccc3c1CN(C3)C(=O)O2)C(=O)NS(=O)(=O)C1CC1 (stereo not shown) [Compound 15bd] | 51 to 300 nM
CC[C@H]1C[C@@]1(NC(=O)C1C[C@@H]2CN1C(=O)[C@H](C(C)(C)C)NC(=O)OCCCCCCCOc1ccc3c(c1)CN(C3)C(=O)O2)C(=O)NS(=O)(=O)C1CC1 (stereo partly shown) [Compound 15be] | 0.1 to 5 nM
C=C[C@H]1C[C@@]1(NC(=O)C1C[C@@H]2CN1C(=O)[C@H](C(C)(C)C)NC(=O)OCCCCCCCOc1ccc3c(c1)CN(C3)C(=O)O2)C(=O)NS(=O)(=O)C1CC1 (stereo partly shown) [Compound 15bf] | 0.1 to 5 nM
CC[C@H]1C[C@@]1(NC(=O)C1C[C@@H]2CN1C(=O)[C@H](C(C)(C)C)NC(=O)OCCCC/C=C/COc1ccc3c(c1)CN(C3)C(=O)O2)C(=O)NS(=O)(=O)C1CC1 (stereo partly shown) [Compound 15bg] | 0.1 to 5 nM
C=C[C@H]1C[C@@]1(NC(=O)C1C[C@@H]2CN1C(=O)[C@H](C(C)(C)C)NC(=O)OCCCC/C=C/COc1ccc3c(c1)CN(C3)C(=O)O2)C(=O)NS(=O)(=O)C1CC1 (stereo partly shown) [Compound 15bh] | 0.1 to 5 nM
CCC1CC1(NC(=O)C1CC2CN1C(=O)C(C(C)(C)C)NC(=O)OCCCC=CCOc1ccc3c(c1)CN(C3)C(=O)O2)C(=O)NS(=O)(=O)C1CC1 (stereo not shown) [Compound 15bk] | 5.1 to 50 nM
C=C[C@H]1C[C@@]1(NC(=O)C1C[C@@H]2CN1C(=O)[C@H](C(C)(C)C)NC(=O)OCC(C)(C)CCCCCOc1ccc3c(c1)CN(C3)C(=O)O2)C(=O)NS(=O)(=O)C1CC1 (stereo partly shown) [Compound 15bn] | 0.1 to 5 nM
CC[C@H]1C[C@@]1(NC(=O)C1C[C@@H]2CN1C(=O)[C@H](C(C)(C)C)NC(=O)OCC(C)(C)CCCCCOc1ccc3c(c1)CN(C3)C(=O)O2)C(=O)NS(=O)(=O)C1CC1 (stereo partly shown) [Compound 15bp] | 0.1 to 5 nM
CC[C@H]1C[C@@]1(NC(=O)C1C[C@@H]2CN1C(=O)[C@H](C(C)(C)C)NC(=O)OCCCCCCOC(=O)c1ccc3c(c1)CN(C3)C(=O)O2)C(=O)NS(=O)(=O)C1CC1 (stereo partly shown) [Compound 15bq] | 51 to 300 nM

Second part, the compound after the results:

IC50 | SMILES
0.1 to 5 nM | C=CC1CC1(NC(=O)C1CC2CN1C(=O)C(C(C)(C)C)NC(=O)OCCCCCCOc1cccc3c1CN(C3)C(=O)O2)C(=O)NS(=O)(=O)C1CC1 (stereo not shown) [Compound 15aa]
0.1 to 5 nM | C=C[C@H]1C[C@@]1(NC(=O)C1C[C@@H]2CN1C(=O)[C@H](C(C)(C)C)NC(=O)OCC/C=C/COc1cccc3c1CN(C3)C(=O)O2)C(=O)NS(=O)(=O)C1CC1 (stereo partly shown) [Compound 15ad]
0.1 to 5 nM | CC[C@H]1C[C@@]1(NC(=O)C1C[C@@H]2CN1C(=O)[C@H](C(C)(C)C)NC(=O)OCC/C=C/COc1cccc3c1CN(C3)C(=O)O2)C(=O)NS(=O)(=O)C1CC1 (stereo partly shown) [Compound 15ae]
0.1 to 5 nM | C=C[C@H]1C[C@@]1(NC(=O)C1C[C@@H]2CN1C(=O)[C@H](C(C)(C)C)NC(=O)OCCCCCOc1cccc3c1CN(C3)C(=O)O2)C(=O)NS(=O)(=O)C1CC1 (stereo partly shown) [Compound 15af]
0.1 to 5 nM | C=C[C@H]1C[C@@]1(NC(=O)C1C[C@@H]2CN1C(=O)[C@H](C(C)(C)C)NC(=O)OCC(C)(C)OC/C=C/COc1cccc3c1CN(C3)C(=O)O2)C(=O)NS(=O)(=O)C1CC1 (stereo partly shown) [Compound 15ah]
0.1 to 5 nM | CC[C@H]1C[C@@]1(NC(=O)C1C[C@@H]2CN1C(=O)[C@H](C(C)(C)C)NC(=O)OCC(C)(C)OC/C=C/COc1cccc3c1CN(C3)C(=O)O2)C(=O)NS(=O)(=O)C1CC1 (stereo partly shown) [Compound 15aj]
0.1 to 5 nM | C=C[C@H]1C[C@@]1(NC(=O)C1C[C@@H]2CN1C(=O)[C@H](C(C)(C)C)NC(=O)OCC(C)(C)OCCCCOc1cccc3c1CN(C3)C(=O)O2)C(=O)NS(=O)(=O)C1CC1 (stereo partly shown) [Compound 15ak]
0.1 to 5 nM | C=C[C@H]1C[C@@]1(NC(=O)C1C[C@@H]2CN1C(=O)[C@H](C(C)(C)C)NC(=O)OCCC/C=C/CCOc1cccc3c1CN(C3)C(=O)O2)C(=O)NS(=O)(=O)C1CC1 (stereo partly shown) [Compound 15an]
0.1 to 5 nM | C=C[C@H]1C[C@@]1(NC(=O)C1C[C@@H]2CN1C(=O)[C@H](C(C)(C)C)NC(=O)OCC(C)(C)C/C=C/COc1cccc3c1CN(C3)C(=O)O2)C(=O)NS(=O)(=O)C1CC1 (stereo partly shown) [Compound 15aq]
0.1 to 5 nM | CC[C@H]1C[C@@]1(NC(=O)C1C[C@@H]2CN1C(=O)[C@H](C(C)(C)C)NC(=O)OCC(C)(C)C/C=C/COc1cccc3c1CN(C3)C(=O)O2)C(=O)NS(=O)(=O)C1CC1 (stereo partly shown) [Compound 15ar]
0.1 to 5 nM | C=C[C@H]1C[C@@]1(NC(=O)C1C[C@@H]2CN1C(=O)[C@H](C(C)(C)C)NC(=O)OCC(C)(C)CCCCOc1cccc3c1CN(C3)C(=O)O2)C(=O)NS(=O)(=O)C1CC1 (stereo partly shown) [Compound 15as]
0.1 to 5 nM | C=CC1CC1(NC(=O)C1CC2CN1C(=O)C(C(C)(C)C)NC(=O)OCC(C)(C)CCCCCOc1cccc3c1CN(C3)C(=O)O2)C(=O)NS(=O)(=O)C1CC1 (stereo not shown) [Compound 15at]
0.1 to 5 nM | C=C[C@H]1C[C@@]1(NC(=O)C1C[C@@H]2CN1C(=O)[C@H](C(C)(C)C)NC(=O)OCC(C)(C)CC/C=C/COc1cccc3c1CN(C3)C(=O)O2)C(=O)NS(=O)(=O)C1CC1 (stereo partly shown) [Compound 15au]
0.1 to 5 nM | CC[C@H]1C[C@@]1(NC(=O)C1C[C@@H]2CN1C(=O)[C@H](C(C)(C)C)NC(=O)OCC1(CC/C=C/COc3cccc4c3CN(C4)C(=O)O2)CC1)C(=O)NS(=O)(=O)C1CC1 (stereo partly shown) [Compound 15b]
0.1 to 5 nM | C=CC1CC1(NC(=O)C1CC2CN1C(=O)C(C(C)(C)C)NC(=O)OCCCC=CCOc1ccc3c(c1)CN(C3)C(=O)O2)C(=O)NS(=O)(=O)C1CC1 (stereo not shown) [Compound 15bj]
51 to 300 nM | C=C[C@H]1C[C@@]1(NC(=O)C1C[C@@H]2CN1C(=O)[C@H](C(C)(C)C)NC(=O)OCC/C=C/COc1ccc3c(c1)CN(C3)C(=O)O2)C(=O)NS(=O)(=O)C1CC1 (stereo partly shown) [Compound 15bm]
